Earlier results on one compound are cited in patent publication US7588907B2, “Ubiquitin mediated fluorescence complementation assay” (The Regents of the University of Michigan, priority 2005, dated 2009).

Each structure is given as a SMILES string. Residues, ends and D or L forms follow the SMILES beside them. *: point of attachment. Cbz = O=C(OCc1ccccc1)*

The subject of the data set is Jun ubiquitinated by DCX^hDET1-hCOP1. To be noted: cells that overexpressed DCX^hDET1-hCOP1 E3 ligase.

`CC(C)C[C@@H](C=O)NC(=O)[C@H](CC(C)C)NC(=O)[C@H](CC(C)C)NC(=O)OCc1ccccc1` [MG132] (Cbz-Leu-Leu-Leu-aldehyde): the “effect on Jun degradation” value is reported as “inhibited”.
